The text below walks through data of patent US10562912B2 (C&C Research Laboratories, priority 2013, dated 2020).

As usually defined, the IC50 is the concentration needed to halve the response being measured. The low end stands for greater potency in that assay, the high end for weaker potency in that assay.

Each structure is given as a SMILES string.

Common to all, as to format: cell-based
The test system of test [1] is AGS. The experiment in a line: Cell growth inhibition assay, stomach cancer cell line AGS. Particulars: Homo sapiens; AGS stomach cancer cell line, 3,000 cells/well. The method, then: The inhibitory effects of the compounds of the present invention against the growth of cancer cells were evaluated as shown below. The cancer cell lines including stomach cancer cell line (AGS), breast cancer cell lines (MDA-MB-231, MDA-MB-468, and BT-549), prostate cancer cell lines (LNCaP and DU-145), colon cancer cell line (HCT116), ovarian cancer cell line (SW626), liver cancer cell line (Hep3B), kidney cancer cell line (ACHN), lung cancer cell line (NCI-H23) and blood cancer cell lines (HEL92.1.7 and U266) were cultured under the protocol provided by each supplier. A medium supplemented with 10 ng/mL of IL-6 was used for LNCaP, a prostate cancer cell line, when treated with a drug. Each type of cells to be used in experiments were sub-cultured in a 96-well plate by counting the exact number of cells using Tali™ Image-based Cytometer (Life Technologies). In a 96-well plate, AGS, HCT116, and DU-145 were employed with 3,000 cells/well; NCI-H23, SW626, Hep3B, ACHN, BT-549, MDA-MB-231, HEL92.1.7, and U266 were employed with 5,000 cells/well; and LNCaP and MDA-MB-468 were employed with 10,000 cells/well. The cells were treated with the compounds listed in Examples which were diluted in various concentrations. Upon completion of the compounds treatment, AGS, HCT116, SW626, DU145, NCI-H23, Hep3B, ACHN, BT-549, LNCaP, HEL92.1.7, and U266 cells were cultured at 37° C. under 5% CO2 for from 72 to 96 hours, and MDA-MB-231 and MDA-MB-468 cells were cultured at 37° C. in air for from 72 to 96 hours. Subsequently, the cells were observed under microscope and drug precipitation and particular findings were investigated and recorded. And then, the 96-well plate was placed at room temperature for 30 minutes, added with 20 μL/well of CellTiter-Glo solution (Cat No. G7573, Promega) and shaken for 10 minutes, followed by being subjected to the measurement using PHERAstar™ microplate reader (BMG LABTECH) according to the supplier's general luminometer protocol. Wells where only culture liquid added without cell plating were used as a negative control, whereas wells where culture liquid containing 0.1% DMSO instead of the compounds listed in Examples were used as a positive control.

The subject of test [2] is LNCaP. The test can be described thus: Cell growth inhibition assay, prostate cancer cell line LNCaP (medium with 10 ng/mL IL-6). Conditions: Homo sapiens, medium supplemented with 10 ng/mL of IL-6, 10,000 cells/well.
In test [3] the target is T1, STAT3 (Homo sapiens, UniProt P40763).
T1 construct: plasmid pSTAT3-TA-luc), which contains a stably operating STAT3 promoter; endogenous in cells
The test can be described thus: STAT3 reporter gene assay (luciferase), LNCaP stable cell line (pSTAT3-TA-luc), IL-6 stimulation. In a few lines: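 Cytotoxicity was run on a duplicate plate with CellTiter-Glo, while the other plate gave luciferase read-outs from lysed LNCaP pSTAT3-TA-luc reporter cells. Cells were treated with graded compound concentrations plus IL-6 (10 ng/mL final) for 24–48 h in 3% DCC-FBS medium. Unstimulated and stimulated wells served as negative and positive controls.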

T1 sequence (P40763 whole entry): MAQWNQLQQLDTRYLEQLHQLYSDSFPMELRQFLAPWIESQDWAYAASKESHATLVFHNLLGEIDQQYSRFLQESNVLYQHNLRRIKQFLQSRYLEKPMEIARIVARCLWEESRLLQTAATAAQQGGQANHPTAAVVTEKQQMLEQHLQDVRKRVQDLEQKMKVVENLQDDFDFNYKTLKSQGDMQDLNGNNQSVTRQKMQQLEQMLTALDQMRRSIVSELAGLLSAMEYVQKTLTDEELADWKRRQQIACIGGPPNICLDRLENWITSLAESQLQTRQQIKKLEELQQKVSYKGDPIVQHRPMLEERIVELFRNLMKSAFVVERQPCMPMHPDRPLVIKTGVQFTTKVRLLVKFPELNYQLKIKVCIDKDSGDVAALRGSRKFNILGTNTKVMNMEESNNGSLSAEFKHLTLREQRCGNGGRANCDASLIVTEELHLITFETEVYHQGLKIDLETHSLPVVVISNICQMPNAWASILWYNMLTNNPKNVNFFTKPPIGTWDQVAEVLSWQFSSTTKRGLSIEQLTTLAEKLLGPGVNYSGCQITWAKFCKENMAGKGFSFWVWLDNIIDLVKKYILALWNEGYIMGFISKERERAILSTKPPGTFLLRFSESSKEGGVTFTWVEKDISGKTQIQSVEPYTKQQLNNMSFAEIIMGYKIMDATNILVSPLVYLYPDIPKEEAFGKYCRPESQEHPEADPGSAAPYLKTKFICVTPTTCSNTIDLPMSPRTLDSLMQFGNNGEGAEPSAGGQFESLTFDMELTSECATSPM

Regarding `CNS(=O)(=O)Nc1ccc2cc(C(=O)Nc3cccc(-c4ccc(F)cc4F)c3)[nH]c2c1` [Example 257, N-(2′,4′-difluoro-[1,1′-biphenyl]-3-yl)-6-((N-methylsulfamoyl)amino)-1H-indole-2-carboxamide], the figures for the IC50 in test [1], in test [2] and in test [3] were 11 µM, 2.8 µM and 3.5 µM, respectively.
The corresponding values for `Nc1ccc2[nH]c(C(=O)Nc3cccc(-c4ccccc4C(F)(F)F)c3)cc2c1` [Example 258, 5-amino-N-(2′-(trifluoromethyl)-[1,1′-biphenyl]-3-yl)-1H-indole-2-carboxamide] are 16.3 µM, 5.2 µM and 2.7 µM.
In the same order, the values of `CS(=O)(=O)Nc1ccc2c(c1)NC(C(=O)Nc1cccc(-c3ccc(F)cc3F)c1)C2` (stereo not drawn) [Example 261, N-(2′,4′-difluoro-[1,1′-biphenyl]-3-yl)-6-(methylsulfonamido)indoline-2-carboxamide] are 28.4 µM, 2.9 µM and 2.4 µM.
The corresponding values for `CS(=O)(=O)Nc1ccc2c(c1)NC(C(=O)Nc1cccc(-c3ccc(F)cc3C(F)(F)F)c1)C2` (stereo not drawn) [Example 262, N-(4′-fluoro-2′-(trifluoromethyl)-[1,1′-biphenyl]-3-yl)-6-(methylsulfonamido)indoline-2-carboxamide] are more than 50 µM, 9.8 µM and 5.3 µM.
`CC(C)(C)OC(=O)n1c(C(=O)Nc2cccc(-c3ccccc3C(F)(F)F)c2)cc2ccc([N+](=O)[O-])cc21` [Example 263, tert-butyl 6-nitro-2-((2′-(trifluoromethyl)-[1,1′-biphenyl]-3-yl)carbamoyl)-1H-indole-1-carboxylate]: the IC50 in test [1] is more than 50 µM; in test [2], 8 µM; in test [3] it was more than 10 µM.
In the same order, the values of `O=C(Nc1cccc(-c2ccccc2C(F)(F)F)c1)c1cc2ccc(NS(=O)(=O)CC(F)(F)F)cc2[nH]1` [Example 264, 6-(2,2,2-trifluoroethylsulfonamido)-N-(2′-(trifluoromethyl)-[1,1′-biphenyl]-3-yl)-1H-indole-2-carboxamide] are 13 µM, 6.2 µM and 1.9 µM.
The corresponding values for `NS(=O)(=O)Nc1ccc2cc(C(=O)Nc3cccc(-c4ccccc4C(F)(F)F)c3)[nH]c2c1` [Example 265, 6-(sulfamoylamino)-N-(2′-(trifluoromethyl)-[1,1′-biphenyl]-3-yl)-1H-indole-2-carboxamide] are 11.4 µM, more than 10 µM and 4.2 µM.
The corresponding values for `CS(=O)(=O)Nc1ccc2c(C(=O)Nc3cccc(-c4ccccc4C(F)(F)F)c3)c[nH]c2c1` [Example 266, 6-(methylsulfonamido)-N-(2′-(trifluoromethyl)-[1,1′-biphenyl]-3-yl)-1H-indole-3-carboxamide] are 8.5 µM, more than 10 µM and 6.8 µM.
In the case of `CN(C)S(=O)(=O)Nc1ccc2cc(C(=O)Nc3cccc(-c4ccccc4C(F)(F)F)c3)[nH]c2c1` [Example 267, 6-((N,N-dimethylsulfamoyl)amino)-N-(2′-(trifluoromethyl)-[1,1′-biphenyl]-3-yl)-1H-indole-2-carboxamide], the IC50 in test [1] is 9.2 µM; in test [2], 3.2 µM; in test [3], 2 µM.
The corresponding values for `O=C(Nc1cccc(-c2ccccc2C(F)(F)F)c1)c1cc2ccc(NS(=O)(=O)C(F)(F)F)cc2[nH]1` [Example 268, N-(2′-(trifluoromethyl)-[1,1′-biphenyl]-3-yl)-6-(trifluoromethylsulfonamido)-1H-indole-2-carboxamide] are 27.1 µM, more than 10 µM and more than 10 µM.
In the same order, the values of `Nc1ccc2cc(C(=O)Nc3cccc(-c4ccc(F)cc4F)c3)[nH]c2c1` [Example 271, 6-amino-N-(2′,4′-difluoro-[1,1′-biphenyl]-3-yl)-1H-indole-2-carboxamide] are 26.1 µM, 8.6 µM and 5.9 µM.
The corresponding values for `CS(=O)(=O)Nc1ccc2[nH]c(C(=O)Nc3cccc(-c4ccc(F)cc4F)c3)cc2c1` [Example 272, N-(2′,4′-difluoro-[1,1′-biphenyl]-3-yl)-5-(methylsulfonamido)-1H-indole-2-carboxamide] are 18.8 µM, 2.6 µM and 0.5 µM.
As to `O=C(Nc1cccc(-c2ccc(F)cc2F)c1)c1cc2ccc(NS(=O)(=O)CC(F)(F)F)cc2[nH]1` [Example 273, N-(2′,4′-difluoro-[1,1′-biphenyl]-3-yl)-6-(2,2,2-trifluoroethylsulfonamido)-1H-indole-2-carboxamide], the IC50 in test [1] amounted to 10 µM; in test [2], 4.1 µM; in test [3], 2.2 µM.
The corresponding values for `NS(=O)(=O)Nc1ccc2cc(C(=O)Nc3cccc(-c4ccc(F)cc4F)c3)[nH]c2c1` [Example 274, N-(2′,4′-difluoro-[1,1′-biphenyl]-3-yl)-6-(sulfamoylamino)-1H-indole-2-carboxamide] are 17.9 µM, more than 10 µM and more than 10 µM.
Take `CN(C)S(=O)(=O)Nc1ccc2cc(C(=O)Nc3cccc(-c4ccc(F)cc4F)c3)[nH]c2c1` [Example 276, N-(2′,4′-difluoro-[1,1′-biphenyl]-3-yl)-6-((N,N-dimethylsulfamoyl)amino)-1H-indole-2-carboxamide]: the IC50 in test [1] came to 11.9 µM; in test [2] it was 1.3 µM; in test [3] it was 3.1 µM.
In the same order, the values of `CS(=O)(=O)Nc1ccc2cc(C(=O)Nc3cccc(-c4ccc(F)cc4C(F)(F)F)c3)[nH]c2c1` [Example 277, N-(4′-fluoro-2′-(trifluoromethyl)-[1,1′-biphenyl]-3-yl)-6-(methylsulfonamido)-1H-indole-2-carboxamide] are 2.1 µM, 1.8 µM and 0.38 µM.
For `O=C(Nc1cc(-c2ccc(F)cc2F)ccn1)c1cc2ccc(NS(=O)(=O)C3CC3)cc2[nH]1` [Example 278, 6-(cyclopropanesulfonamido)-N-(4-(2,4-difluorophenyl)pyridin-2-yl)-1H-indole-2-carboxamide], the IC50 in test [1] amounted to 20 µM; in test [2] it was 5.9 µM; in test [3], 4.5 µM.
In the same order, the values of `CS(=O)(=O)Nc1ccc2cc(C(=O)Nc3cc(-c4ccc(F)cc4F)ccn3)[nH]c2c1` [Example 279, N-(4-(2,4-difluorophenyl)pyridin-2-yl)-6-(methylsulfonamido)-1H-indole-2-carboxamide] are 40.7 µM, more than 10 µM and 6.2 µM.
Consider `CN(C(=O)c1cc2ccc(NS(C)(=O)=O)cc2[nH]1)c1cccc(-c2ccc(F)cc2F)c1` [Example 280, N-(2′,4′-difluoro-[1,1′-biphenyl]-3-yl)-N-methyl-6-(methylsulfonamido)-1H-indole-2-carboxamide], for which the IC50 is 2.7 µM in test [1], 2.7 µM in test [2] and 1.7 µM in test [3].
On to `COc1ccc(C(F)(F)F)c(-c2cccc(NC(=O)c3cc4ccc(NS(C)(=O)=O)cc4[nH]3)c2)c1` [Example 281, N-(5′-methoxy-2′-(trifluoromethyl)-[1,1′-biphenyl]-3-yl)-6-(methylsulfonamido)-1H-indole-2-carboxamide], for which the IC50 in test [1] is 16.6 µM; in test [2], more than 10 µM; in test [3], 7.1 µM.
As to `COc1ccc(C(F)(F)F)c(-c2cccc(NC(=O)c3cc4ccc([N+](=O)[O-])cc4[nH]3)c2)c1` [Example 282, N-(5′-methoxy-2′-(trifluoromethyl)-[1,1′-biphenyl]-3-yl)-6-nitro-1H-indole-2-carboxamide], the IC50 is 23.8 µM in test [1], more than 10 µM in test [2] and more than 10 µM in test [3].
`CS(=O)(=O)Nc1ccc2cc(C(=O)Nc3cccc(-c4ccc(S(N)(=O)=O)cc4C(F)(F)F)c3)[nH]c2c1` [Example 283, 6-(methylsulfonamido)-N-(4′-sulfamoyl-2′-(trifluoromethyl)-[1,1′-biphenyl]-3-yl)-1H-indole-2-carboxamide]: the IC50 in test [1] is 18.2 µM; in test [2] it was more than 10 µM; in test [3], 7.4 µM.
